Experimental findings from patent publication US20080113938A1, “ACCELERATOR FOR MINERAL ABSORPTION AND USE THEREOF” (KABUSHIKI KAISHA HAYASHIBARA SEIBUTSU KAGAKU KENKYUJO, priority 2003, published 2008) are described below.

Holding throughout (assay type): cell-based, Wister rats
In test [1] the test system is reversed canal sac of intestinum ileum. Nature of the test: Calcium absorption in reversed canal sac, intestinum ileum. The procedure: (§1) Experiment 1 confirmed that cyclic tetrasaccharide promotes mineral absorption in alimentary canal of rat concretely in intestinum ileum or its upper alimentary canal. The following experiment was carried out in order to determine a part of alimentary canal, cyclic tetrasaccharide acts on to promote mineral absorption. Twenty heads of Wister rats (nine week aged male, commercialized by Charlesriver Corporation, Kanagawa, Japan) were bred for three days with a usual solid feed for rats. Under the anesthetization with ether, alimentary canal was taken out from each rat which had been bled from a jugular vein and treated by abdominal operation. Each alimentary canal was divided into jejunum, intestinum ileum and colon/rectum and washed with physiological saline to remove the content. The resulting jejunum specimen, intestinum ileum specimen or colon/rectum specimen was cut off to prepare each midsection sized with about 10 cm in length. The resulting midsection of each specimen was reversed using a glass rod and immersed in a physiological saline babbled with gas consisting of 95% oxygen and 5% carbon dioxide. The resultant was cut into pieces sized with 5 cm in length and each piece was tied with a suture thread at both ends to prepare a reversed canal sac, and injected with about 0.5 ml of an internal sac solution containing 30 mM Tris-HCl buffer (pH7.4), 125 mM sodium chloride, 4 mM potassium chloride, 10 mM glucose and 1.25 mM calcium chloride (dihydrate) with a syringe and weighed. The resulting sac was immersed in an external sac solution (being bubbled with the gas consisting of 95% oxygen and 5% carbon dioxide) containing 50 mM, 100 mM or 200 mM of the same cyclic tetrasaccharide to Experiment 1 in the above solution containing 30 mM Tris-HCl buffer (pH7.4), 125 mM sodium chloride, 4 mM potassium chloride, 10 mM glucose and 1.25 mM calcium chloride (dihydrate). At 15 or 30 minutes after the immersion, the reversed canal sac was taken out from the solution and washed with distilled water. The internal sac solution was collected from the resulting sac and admixed with distilled water to give a final volume of 25 ml. The resulting solution was subjected to a calorimetric measurement of calcium content using “CALCIUM TEST C WAKO™” (commercialized by Wako Pure Chemicals Corporation, Osaka, Japan). As a negative control, an external sac solution without saccharides. As a positive control, an external sac solution containing 200 mM maltitol, reported to have the effect on promoting mineral absorption though intestinal canal, instead of cyclic tetrasaccharide were prepared and carried out in the same manner. Speed of calcium absorption (nmol/min·cm^2) and its relative values defining the value of negative control as 100 were calculated.

Test [2] deals with reversed canal sac of jejunum. Nature of the test: Calcium absorption in reversed canal sac, jejunum. On the procedure:
as §1

Test [3] has as its system reversed canal sac of colon/rectum. Nature of the test: Calcium absorption in reversed canal sac, colon/rectum. On the procedure:
as §1

Where [4] appears, read: 200 mM saccharide in external sac solution.

Marks after values point to notes of the source that are not given here.

As to `OC[C@@H](O)[C@@H](O[C@H]1O[C@H](CO)[C@@H](O)[C@H](O)[C@H]1O)[C@H](O)[C@@H](O)CO` [Maltitol, maltitol, reference compound], in test [1] (setting [4]), the “Absorption speed of calcium in alimentary canal sac, Intestinum ileum” value is given as 40.5 * nmol/min · cm^2 and the “Relative value of calcium absorption speed (control = 100), Intestinum ileum” value is reported as “(150)”. The “promotion of calcium absorption in intestinum ileum” value in test [1] (reversed sac) is given as “strongly promoted”. Moreover, in test [2] (setting [4]), the “Absorption speed of calcium in alimentary canal sac, Jejunum” value is 27.9 * nmol/min · cm^2 and the “Relative value of calcium absorption speed (control = 100), Jejunum” value is recorded as “(131)”. The “promotion of calcium absorption in jejunum” value in test [2] (reversed sac) is reported as “strongly promoted”. Further, in test [3] (setting [4]), the “Absorption speed of calcium in alimentary canal sac, Colon/Rectum” value is listed as 22.3 * nmol/min · cm^2 and the “Relative value of calcium absorption speed (control = 100), Colon/Rectum” value is “(168)”. Moreover, the “promotion of calcium absorption in colon/rectum” value in test [3] (reversed sac) was “strongly promoted”.
